B1: MAGE-A3: MAGE-A3 protein; recombinant His-MAGE-A3 produced in E. coli, or expressed from MFG MAGE-A3 retrovirus in Example 6 (protein, listed as Homo sapiens)
chain: MPLEQRSQHCKPEEGLEARGEALGLVGAQAPATEEQEAASSSSTLVEVTLGEVPAAESPDPPQSPQGASSLPTTMNYPLWSQSYEDSSNQEEEGPSTFPDLESEFQAALSRKVAELVHFLLLKYRAREPVTKAEMLGSVVGNWQYFFPVIFSKASSSLQLVFGIELMEVDPIGHLYIFATCLGLSYDGLLGDNQIMPKAGLLIIVLAIIAREGDCAPEEKIWEELSVLEVFEGREDSILGDPKKLLTQHFVQENYLEYRQVPGSDPACYEFLWGPRALVETSYVKVLHHMVKISGGPHISYPPLHEWVLREGEE
modifications: His tag

Columns and labels:
[1] = test system: CD4+ clone 436/B6.37 (B6/37); test: IFN-γ/TNF production by CD4+ clone B6/37 (clone 37) stimulated with peptide- or protein-pulsed EBV-B cells; format: cell-based, human
Procedure, shortened: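 CD4+ clone (2,500 cells) cocultured 18-20 h with 5,000 EBV-B cells pre-pulsed 2 h at 37 °C with MAGE-A3 peptides or 18-20 h with 20 μg/ml His-MAGE-A3 protein; ovalbumin as negative control. IFN-γ measured by ELISA, TNF by WEHI 164 clone 13 cytotoxicity (MTT); triplicates.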

clone 37 = test: Presentation of exogenous MAGE-A3 by HLA-DR13 dendritic cells to clone 37 (IFN-γ ELISA); format: cell-based, human; details: 10^4 HLA-DR13 dendritic cells in 100 μl pre-incubated 24 h; 2500 clone 37 cells, 20 h
Description: Clone 37 was obtained with autologous dendritic cells heavily loaded with MAGE-A3 protein. To determine the ability of dendritic cells that capture a quantity of MAGE-A3 protein released by a few MAGE-A3^+ cells to stimulate CD4^+ T cells, HLA-DR13 dendritic cells were incubated for 24h with decreasing concentrations of MAGE-A3 as depicted in (FIG. 9A). Stimulation of clone 37 was tested by washing the cells, distributing the cells in round-bottomed microwells, and adding 2500 clone 37 cells. IFN-γ secretion was measured by ELISA after 20h of coculture. Experiments were performed in triplicate. Half maximum production of IFN-γ was obtained when 10^4 dendritic cells in a volume of 100 μl were pre-incubated with 30 ng of MAGE-A3, the quantity of MAGE-A3 present in around 2×10^4 MZ2-MEL.43 tumor cells.

Molecule	activation of clone B6/37 by 16 amino acid peptides [1]	stimulation of clone 37 ([1]; same conditions (peptide 10 ng/ml; HLA-DR13 EBV-B cells))	quantity of MAGE-A3 giving half maximum production of IFN-γ (clone 37)
FLLLKYRAREPVTKAE (listed as Homo sapiens) [MAGE-A3119-134]	unable to activate	not stimulated	–
B1	–	–	30 ng

From patent publication US6716809B1, “Mage-A3 peptides presented by HLA class molecules” (priority 1997, dated 2004)
